Measurements as given in BindingDB's records for doi:10.1016/s0960-894x(02)00471-7 (Universita' Di Firenze, 2002).

Target: T1, Substance-K receptor (Homo sapiens, UniProt P21452)
T1 sequence (P21452 whole entry): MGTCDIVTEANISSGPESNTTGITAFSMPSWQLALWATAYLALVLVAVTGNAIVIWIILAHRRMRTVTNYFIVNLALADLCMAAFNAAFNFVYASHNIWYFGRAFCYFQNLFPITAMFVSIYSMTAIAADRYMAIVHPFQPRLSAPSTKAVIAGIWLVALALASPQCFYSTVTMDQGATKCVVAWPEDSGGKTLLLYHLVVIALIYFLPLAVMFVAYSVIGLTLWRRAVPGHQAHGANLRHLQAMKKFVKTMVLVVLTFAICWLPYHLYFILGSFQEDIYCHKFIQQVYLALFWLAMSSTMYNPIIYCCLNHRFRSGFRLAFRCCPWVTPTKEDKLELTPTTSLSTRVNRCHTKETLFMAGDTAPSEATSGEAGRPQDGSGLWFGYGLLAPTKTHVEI
Experiment: ChEBML_209037
Excerpt: Displacement of [125I]NKA from human Tachykinin receptor 2 expressed in CHO cells

Ki: 790 nM
Structure (SMILES): CCOC(=O)C1C(C)OC2OC(COCc3ccccc3)C(OCc3ccccc3)C(=O)C2[S+]1[O-] (stereo unspecified) [7-Benzyloxy-6-benzyloxymethyl-8-hydroxy-3-methyl-1-oxo-6,7,8,8a-tetrahydro-1H,4aH-4,5-dioxa-1lambda*4*-thia-naphthalene-2-carboxylic acid ethyl ester]
